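Exposure lasted 48 hours, with cells grown in 96-well plates and compounds tested at five concentrations. TGI denotes the concentration required for complete inhibition of growth.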
Columns and labels:
Assay in all cases: NCI anticancer screen, dose series, 48 h
786-0 renal = tested on: 786-0 renal
A498 renal = tested on: A498 renal
A549 NSCLC = tested on: A549 NSCLC
ACHN renal = tested on: ACHN renal
BT-549 breast = tested on: BT-549 breast
CAKI-1 renal = tested on: CAKI-1 renal
CCRF-CEM leukemia = tested on: CCRF-CEM leukemia
COLO 205 colon = tested on: COLO 205 colon
DU-145 prostate = tested on: DU-145 prostate
EKVX NSCLC = tested on: EKVX NSCLC
HCC-2998 colon = tested on: HCC-2998 colon
HCT-116 colon = tested on: HCT-116 colon
HCT-15 colon = tested on: HCT-15 colon
HL-60(TB) leukemia = tested on: HL-60(TB) leukemia
HOP-62 NSCLC = tested on: HOP-62 NSCLC
HOP-92 NSCLC = tested on: HOP-92 NSCLC
HS 578T breast = tested on: HS 578T breast
HT29 colon = tested on: HT29 colon
IGROV1 ovarian = tested on: IGROV1 ovarian
K-562 leukemia = tested on: K-562 leukemia
KM12 colon = tested on: KM12 colon
LOX IMVI melanoma = tested on: LOX IMVI melanoma
M14 melanoma = tested on: M14 melanoma
MALME-3M melanoma = tested on: MALME-3M melanoma
MCF7 breast = tested on: MCF7 breast
MDA-MB-231 breast = tested on: MDA-MB-231 breast
MDA-MB-435 = tested on: MDA-MB-435
MDA-N = tested on: MDA-N
MOLT-4 leukemia = tested on: MOLT-4 leukemia
NCI-H226 lung = tested on: NCI-H226 lung
NCI-H23 lung = tested on: NCI-H23 lung
NCI-H460 lung = tested on: NCI-H460 lung
NCI-H522 lung = tested on: NCI-H522 lung
NCI/ADR-RES ovarian = tested on: NCI/ADR-RES ovarian
OVCAR-3 ovarian = tested on: OVCAR-3 ovarian
OVCAR-4 ovarian = tested on: OVCAR-4 ovarian
OVCAR-5 ovarian = tested on: OVCAR-5 ovarian
OVCAR-8 ovarian = tested on: OVCAR-8 ovarian
PC-3 prostate = tested on: PC-3 prostate
RPMI-8226 leukemia = tested on: RPMI-8226 leukemia
SF-268 CNS = tested on: SF-268 CNS
SF-295 CNS = tested on: SF-295 CNS
SF-539 CNS = tested on: SF-539 CNS
SK-MEL-2 melanoma = tested on: SK-MEL-2 melanoma
SK-MEL-28 melanoma = tested on: SK-MEL-28 melanoma
SK-MEL-5 melanoma = tested on: SK-MEL-5 melanoma
SK-OV-3 ovarian = tested on: SK-OV-3 ovarian
SN12C renal = tested on: SN12C renal
SNB-19 CNS = tested on: SNB-19 CNS
SNB-75 CNS = tested on: SNB-75 CNS
SW-620 colon = tested on: SW-620 colon
T-47D breast = tested on: T-47D breast
TK-10 renal = tested on: TK-10 renal
U251 CNS = tested on: U251 CNS
UACC-257 melanoma = tested on: UACC-257 melanoma
UACC-62 melanoma = tested on: UACC-62 melanoma
UO-31 renal = tested on: UO-31 renal
RXF 393 renal = tested on: RXF 393 renal

Oc1cccc2c1[nH]c1c(C3=C[C@@]4(O)CC/C=C\CCCCN5CC[C@@H]3[C@]3(CC6/C=C\CCCCN6[C@H]34)C5)nccc12 (some centres undefined)
TGI (786-0 renal): 1.86 µM
TGI (A498 renal): 7.65 µM
TGI (A549 NSCLC): 4.39 µM
TGI (ACHN renal): 4.1 µM
TGI (BT-549 breast): 4.37 µM
TGI (CAKI-1 renal): 4.43 µM
TGI (CCRF-CEM leukemia): 4.04 µM
TGI (COLO 205 colon): 3.71 µM
TGI (DU-145 prostate): 4.64 µM
TGI (EKVX NSCLC): 4.87 µM
TGI (HCC-2998 colon): 1.87 µM
TGI (HCT-116 colon): 2.74 µM
TGI (HCT-15 colon): 1.86 µM
TGI (HL-60(TB) leukemia): 2.59 µM
TGI (HOP-62 NSCLC): 1.85 µM
TGI (HOP-92 NSCLC): 1.3 µM
TGI (HS 578T breast): 3.69 µM
TGI (HT29 colon): 2.25 µM
TGI (IGROV1 ovarian): 3.18 µM
TGI (K-562 leukemia): 2.01 µM
TGI (KM12 colon): 2.99 µM
TGI (LOX IMVI melanoma): 2.04 µM
TGI (M14 melanoma): 2.45 µM
TGI (MALME-3M melanoma): 3.02 µM
TGI (MCF7 breast): 1.77 µM
TGI (MDA-MB-231 breast): 2.81 µM
TGI (MDA-MB-435): 2.17 µM
TGI (MDA-N): 2 µM
TGI (MOLT-4 leukemia): 4.95 µM
TGI (NCI-H226 lung): 5.17 µM
TGI (NCI-H23 lung): 2.56 µM
TGI (NCI-H460 lung): 2.19 µM
TGI (NCI-H522 lung): 2.4 µM
TGI (NCI/ADR-RES ovarian): 6.31 µM
TGI (OVCAR-3 ovarian): 2.83 µM
TGI (OVCAR-4 ovarian): 2.79 µM
TGI (OVCAR-5 ovarian): 2.81 µM
TGI (OVCAR-8 ovarian): 2.88 µM
TGI (PC-3 prostate): 3.87 µM
TGI (RPMI-8226 leukemia): 2.6 µM
TGI (SF-268 CNS): 6.15 µM
TGI (SF-295 CNS): 3.29 µM
TGI (SF-539 CNS): 3.74 µM
TGI (SK-MEL-2 melanoma): 2.97 µM
TGI (SK-MEL-28 melanoma): 3.73 µM
TGI (SK-MEL-5 melanoma): 2.96 µM
TGI (SK-OV-3 ovarian): 5.15 µM
TGI (SN12C renal): 2.49 µM
TGI (SNB-19 CNS): 14.6 µM
TGI (SNB-75 CNS): 3.86 µM
TGI (SW-620 colon): 3.44 µM
TGI (T-47D breast): 3.19 µM
TGI (TK-10 renal): 5.56 µM
TGI (U251 CNS): 2.79 µM
TGI (UACC-257 melanoma): 5.79 µM
TGI (UACC-62 melanoma): 3.26 µM
TGI (UO-31 renal): 3.5 µM

COC(=O)c1ccccc1C1CN=NC12Cc1cc(C)cc(C)c1C2=O (centres undefined)
TGI (786-0 renal): > 100 µM
TGI (A498 renal): 66.2 µM
TGI (A549 NSCLC): > 100 µM
TGI (ACHN renal): > 100 µM
TGI (BT-549 breast): > 100 µM
TGI (CAKI-1 renal): > 100 µM
TGI (CCRF-CEM leukemia): > 100 µM
TGI (COLO 205 colon): > 100 µM
TGI (DU-145 prostate): > 100 µM
TGI (EKVX NSCLC): > 100 µM
TGI (HCC-2998 colon): > 100 µM
TGI (HCT-116 colon): > 100 µM
TGI (HCT-15 colon): 76.6 µM
TGI (HL-60(TB) leukemia): 51.7 µM
TGI (HOP-62 NSCLC): > 100 µM
TGI (HOP-92 NSCLC): > 100 µM
TGI (HS 578T breast): > 100 µM
TGI (HT29 colon): > 100 µM
TGI (IGROV1 ovarian): > 100 µM
TGI (K-562 leukemia): > 100 µM
TGI (KM12 colon): > 100 µM
TGI (LOX IMVI melanoma): > 100 µM
TGI (M14 melanoma): > 100 µM
TGI (MALME-3M melanoma): > 100 µM
TGI (MCF7 breast): > 100 µM
TGI (MDA-MB-231 breast): > 100 µM
TGI (MDA-MB-435): > 100 µM
TGI (MDA-N): > 100 µM
TGI (MOLT-4 leukemia): > 100 µM
TGI (NCI-H226 lung): > 100 µM
TGI (NCI-H23 lung): > 100 µM
TGI (NCI-H460 lung): > 100 µM
TGI (NCI-H522 lung): 90 µM
TGI (NCI/ADR-RES ovarian): > 100 µM
TGI (OVCAR-3 ovarian): > 100 µM
TGI (OVCAR-4 ovarian): > 100 µM
TGI (OVCAR-5 ovarian): > 100 µM
TGI (OVCAR-8 ovarian): > 100 µM
TGI (PC-3 prostate): > 100 µM
TGI (RXF 393 renal): > 100 µM
TGI (SF-268 CNS): > 100 µM
TGI (SF-295 CNS): > 100 µM
TGI (SF-539 CNS): > 100 µM
TGI (SK-MEL-2 melanoma): > 100 µM
TGI (SK-MEL-28 melanoma): > 100 µM
TGI (SK-MEL-5 melanoma): > 100 µM
TGI (SK-OV-3 ovarian): > 100 µM
TGI (SN12C renal): > 100 µM
TGI (SNB-19 CNS): > 100 µM
TGI (SNB-75 CNS): > 100 µM
TGI (SW-620 colon): > 100 µM
TGI (T-47D breast): > 100 µM
TGI (TK-10 renal): > 100 µM
TGI (U251 CNS): > 100 µM
TGI (UACC-257 melanoma): > 100 µM
TGI (UACC-62 melanoma): > 100 µM
TGI (UO-31 renal): > 100 µM

— PubChem BioAssay (NCI)
